# Results from patent US5459142A, “Pyrazinyl and piperazinyl substituted pyrazine compounds” (Otsuka Pharmaceutical Co., Ltd., priority 1991, dated 1995).
# Legend:
# [1] = system: superoxide radicals (O2^-) released from peritoneal macrophage cells of guinea pig; assay: Inhibitory effect against superoxide radicals released from peritoneal macrophage cells of guinea pig by stimulation (FMLP), cytochrome C reduction; format: cell-based; conditions: Cavia porcellus, Peritoneal macrophage cell; guinea pig peritoneal macrophages 2×10^6 cells/ml; FMLP 10^-7 M; 37° C.; OD550; read-out: IC50 (superoxide radical release)
# Description: Inhibitory effect against superoxide radicals released from the peritoneal macrophage cells of guinea pig by stimulation:
# Mineral oil (15 ml) was intraperitoneally administered to a guinea pig, then 96 hours after the administration, the peritoneal macrophage cells were sampled.
# Superoxide radicals (O2^-) were determined by means of reduction of cytochrome C method according to the procedure described in an article written by T. Matsumoto, K. Takeshige and S. Minakami: Biochemical and Biophysical Research Communications, Vol. 88, No. 3, pp. 974-979, (1979).
# The peritoneal macrophage cells were added to make the final concentration of 2×10^6 cells/ml into ml of 80 μM-cytochrome C solution, and the test compound of pyrazine derivative of the present invention was added thereto to make the test group sample. On the other hand, water was added in place of the test compound of the present invention to make the control group sample. Each of the test group sample and the control group sample was subjected to pre-incubation at 37° C. for 1 minute.
# As to the stimulating agent for releasing superoxide radicals (O2^-), FMLP (formylmethionyl leucyl phenylalanine) was added to make the final concentration thereof to 10^-7 M, to each of the test group sample and the control group sample. Then both samples were subjected to additional reaction by incubation for 1 minute.
# Difference of the optical absorbances measured at 550 nm (OD550) of both test group and control group samples were determined, and the 50% inhibitory concentration (IC50) was obtained by calculating as the ratio of OD550 of the test group sample to that of the control group sample.
# [2] = system: releasing of lysosome from the neutrocytes of rat; assay: Inhibitory effect against the releasing of lysosome from the neutrocytes of rat; format: cell-based; conditions: rat neutrocytes 5×10^5 cells/ml; 10^-6 M FMLP and 5 μg/ml cytochalasin B; OD540
# Description: Inhibitory effect against the releasing of lysosome from the neutrocytes of rat
# The neutrocytes of rat were sampled from the abdominal cavity of the rat 16 hours after the administration of 10 ml of 1%-casein solution (physiological saline solution).
# Reaction of the releasing of lysosome from the neutrocytes of rat was determined by means of the method as described in an article written by T. Matsumoto, K. Takeshige and S. Minakami: Biochemical and Biophysical Research Communications, Vol. 88, No. 3, pp. 974-979, (1979).
# The neutrocytes being sampled were added to Hank's solution so as to make the concentration thereof as 5×10^5 cells/ml, and the test compound of pyrazine derivative of the present invention was added thereto to make the test group sample. On the other hand, water as added in place of the pyrazine derivative of the present invention to make the control group sample. Each of the test group sample and the control group sample was subjected to pre-incubation at 37° C. for 1 minute.
# As to the stimulating agents, 10^-6 M of FMLP (formylmethionyl leucyl phenylalanine) and 5 μg/ml of cytochalasin B were added to the solution. […] After the reaction, 1N-NaOH solution was added to the reaction mixture so as to make the pH value thereof to pH 8 to 9, and the optical absorbance of both test group samples and control group samples were determined at 540 nm (OD540). […]
# [3] = system: releasing of hydrogen peroxide (H2O2) from the neutrocytes of rat abdominal cavity; assay: Inhibitory effect against the releasing of hydrogen peroxide (H2O2) from the neutrocytes of rat abdominal cavity; format: cell-based, SD-strain rat; conditions: rat neutrocytes 10^6 cells/ml; FMLP 2×10^-6 M; 37° C., 1 hour; OD510
# Description: Inhibitory effect against the releasing of hydrogen peroxide (H2 O2) from the neutrocytes of rat abdominal cavity
# 1) 1%-Casein solution was administered to the adbominal cavity of a SD-strain rat, then 16 hours after the administration, the neutrocytes were obtained by washing the abdominal cavity. Thus obtained neutrocytes were washed with Hank's solution.
# 2) The formulation of the reaction mixture(*) was as follows: […]
# ______________________________________
# Rat neutrocytes 10^6 cells/ml
# Text compound was added to the reaction mixture, then the whole mixture was incubated at 37° C. for 1 hour.
# 3) Next, the reacted mixture was subjected to centrifugal separation at 2,000 rpm for 10 minutes, then ml of the supernatant liquor was taken as a sample and microliters of 1N-NaOH solution was added thereto.
# 4) The optical absorbance at 510 nm (OD510) was determined by means of using a spectrophotometer. The 50% inhibitory concentration was obtained by calculating as the ratio of OD510 of the test group sample to that of the control group sample.
IC50 [2] [µg/mL],IC50 [3] [µg/mL],SMILES,IC50 [1] [µg/mL]
16,–,COc1c(C(=O)Nc2nc3ccccc3s2)[nH]c(=O)c(CC(C)C)[n+]1[O-] [Example 7],18
–,60,COc1c(C(=O)Nc2cc(C(C)(C)C)c(O)c(C(C)(C)C)c2)[nH]c(=O)c(CC(C)C)[n+]1[O-] [Example 5],17
–,–,COc1cccc(NC(=O)c2[nH]c(=O)c(CC(C)C)[n+]([O-])c2OC)c1 [Example 2],40
–,–,COc1c(C(=O)Nc2cccc(SC)c2)[nH]c(=O)c(CC(C)C)[n+]1[O-] [Example 3],20
–,–,COc1ccc2nc(NC(=O)c3[nH]c(=O)c(CC(C)C)[n+]([O-])c3OC)sc2c1 [Example 8],10
20,–,COc1c(C(=O)Nc2ccccc2-c2ccccc2)[nH]c(=O)c(CC(C)C)[n+]1[O-] [Example 6],3
–,–,COc1c(C(=O)Nc2ccc3c(c2)OCO3)[nH]c(=O)c(CC(C)C)[n+]1[O-] [Example 4],56
–,–,"COc1cccc(CNC(=O)c2[nH]c(=O)c(CC(C)C)[n+]([O-])c2OC)c1 [Test compound 1, 3-Isobutyl-5-methoxy-6-[N-(3-methoxybenzyl)]-carbamoyl-1,2-dihydropyrazin-2-one 4-oxide]",30
